{
  "source": "patent US20070264198A1",
  "about": "“TUMOR NECROSIS AGENT” (Ajinomoto Co., Inc., priority 2001, published 2007)",
  "key": {"[1]": {"system": "Sato lung carcinoma (SLC)", "test": "Anti-tumor effect against tumor grown in the transparent chamber", "format": "in vivo, rat", "conditions": "10 mg/kg, tail vein, Donryu rats; state maintained for 48 hours after treatment", "experimental": "(§1) Donryu rats (Crj-Donryu; supplied by Charles River Japan, Inc.), male.\n(§2) Rat lung carcinoma, Sato lung carcinoma (SLC)\n(§3) MTPVS powder was dissolved in physiological saline to a final concentration of 10 mg/ml. The solution (10 mg/kg) was administered through the tail vein of rats. Pentobarbital salt (Nembutal; manufactured by Abbott Laboratories) and enflurane (Ethrane; manufactured by Abbott Laboratories) was used as an anesthesia. Pentobarbital was intramuscularly administered at a dose of 25 mg/kg, 10 minutes prior to the experiment, and a suitable amount thereof was additionally administered at intervals of 90 minutes to maintain anesthesia during the experiment. The concentration of enflurane was maintained at 1% (1 L/min) using an anesthesia device for small animals.\nThe change of the tumor blood flow (hereinafter referred to as “TBF”) was observed through a biomicroscope. The dorsal skin of the rat was held with a transparent chamber under sterile conditions, and a small fragment of tumor was implanted thereon. […]\nMTPVS used in a test group was administered through the tail vein by infusion pump. […] The blood vessels of tumor in the chamber were visualized with a halogen lump of 12 V and 100 W. The images of the microscope were recorded using a CCD video camera (CS-900; manufactured by Olympus Corporation), a television monitor and an S-VHS video recorder. […]"}, "[2]": {"system": "arteriole supplying nutrients to the tumor / tumor blood flow (SLC tumor)", "test": "Biomicroscopic observation of the change of tumor microcirculation", "format": "in vivo, rat", "conditions": "intravenous 10 mg/kg", "experimental": "as §1, §2, §3\nThe change of the tumor blood flow (hereinafter referred to as “TBF”) was observed through a biomicroscope. The dorsal skin of the rat was held with a transparent chamber under sterile conditions, and a small fragment of tumor was implanted thereon. After the tumor started to grow thereto, the rat was tested as described in Jpn. J. Cancer Res. 81: 279-288, 1990, which is incorporated herein by reference. The chamber comprises two titanium flames of the same shape each having a circular quartz glass window with a thickness of 300 μm. After anesthesia, the rat with the chamber was put on a stage heated at 34.5° C. in the microscope.\nMTPVS used in a test group was administered through the tail vein by infusion pump. […] and histological changes of tumor were directly observed through an optical microscope (Eclipse E800; manufactured by Nikon Corporation) with an eye lens of 10× and an object glass of 2× to 20×. The blood vessels of tumor in the chamber were visualized with a halogen lump of 12 V and 100 W. The images of the microscope were recorded using a CCD video camera (CS-900; manufactured by Olympus Corporation), a television monitor and an S-VHS video recorder.\nAt this time, in the blood vessel on the peripheral portion of the tumor, the plasma concentration was decreased, and large quantities of red blood cells were retained. These red blood cells were hemolyzed within 2 to 3 hours after MTPVS administration to form clog.\nAn inserted section on the left upper portion in FIG. 4 is an enlarged view of the blood vessels on the peripheral portion of the tumor. FIGS. 1 to 4 are based on photographs taken (length of a bar: 500 μm) by using an eye lens of 10× and an object glass of 4×. The inserted section is based on a photograph taken (length of a bar: 50 μm) by using an eye lens of 10× and an object glass of 20×."}},
  "note": "Structures can show the parent of a compound that is named as a salt.",
  "data": [
    {"smiles": "COc1ccc(/C=C\\c2cc(OC)c(OC)c(OC)c2)cc1NC(=O)[C@@H](N)CO", "note": "[MTPVS, (Z)-N-[2-methoxy-5-[2-(3,4,5-trimethoxyphenyl)vinyl]phenyl]-L-serinamide hydrochloride]", "values": [
      {"measurement": "time to necrosis of SLC tumor grown in the transparent chamber", "setting": "[1]", "value": "≤ 25", "unit": "h"},
      {"measurement": "restoration of tumor blood flow after clog and hemolysis", "setting": "[2]", "value": "no longer restored"},
      {"measurement": "time at which tumor blood flow stopped almost completely", "setting": "[2]; after administration", "value": 30, "unit": "min"},
      {"measurement": "time to hemolysis of retained red blood cells in blood vessel on peripheral portion of the tumor (clog formation)", "setting": "[2]; after administration", "value": "2 to 3", "unit": "hours"},
      {"measurement": "blood vessel structure in the normal tissues", "setting": "[2]; normal tissues", "value": "maintained as normal"},
      {"measurement": "contraction of the arteriole supplying nutrients to the tumor", "setting": "[2]; rat SLC tumor in transparent chamber", "value": "markedly contracted"}
    ]}
  ]
}
